{"source": "patent US5342980A", "about": "“Fungicidal agents” (American Cyanamid Company, priority 1992, dated 1994); for disease control rating, CUFO: ranges in brackets are in %; for disease control rating, CURS: ranges in brackets are in %", "key": {"[1]": {"test_system": "Plasmopara viticola", "test": "In vivo fungicidal evaluation, Grape Downy Mildew (GDM)", "settings": "200 ppm, plants sprayed before inoculation"}, "[2]": {"test_system": "Pyricularia oryzae", "type": "in vivo", "settings": "200 ppm, plants sprayed before inoculation"}, "[3]": {"test_system": "Cercospora beticola", "test": "In vivo fungicidal evaluation, Sugar Beet Cercospora (SBC)", "settings": "plants sprayed before inoculation"}, "[4]": {"test_system": "Cercospora arachidicola", "test": "In vivo fungicidal evaluation, Peanut Cercospora Early Leaf Spot (PCE)", "settings": "400 ppm, plants sprayed before inoculation"}, "[5]": {"test_system": "Pythium aphanidermantum", "test": "Control of soil borne diseases, Cucumber damping-off by Pythium (CUPA); note: ranges in brackets are in %", "type": "in vivo", "settings": "14-18 days after treatment", "method": "(§1) Pasturized soil (100 mL) is added to 6 cm diameter plastic cups without drainage holes and covered with pathogen contaminated soil (30 mL). Ten germinated cucumber seeds are planted on the contaminated soil and the seeds are covered with pasteurized soil (20 mL). Test compounds are dissolved in acetone, diluted with deionized water containing about 0.05% TWEEN 20®, and applied to the pots by drenching the soil surface with 15 mL of test solution. The pots are placed in a greenhouse for disease development. The pots are watered lightly until plants emerge from the soil surface. Disease evaluations are made 14-18 days after treatment according to the rating scale shown below."}, "[6]": {"test_system": "Botrytis cinerea", "test": "In vivo fungicidal evaluation, Pepper Botrytis (PB)", "settings": "200 ppm, plants sprayed before inoculation"}, "[7]": {"test_system": "Rhizoctonia solani", "test": "Control of soil borne diseases, Cucumber damping-off by Rhizoctonia (CURS)", "type": "in vivo", "settings": "14-18 days after treatment", "method": "as §1"}, "[8]": {"test_system": "Mycosphaerella fijiensis", "test": "Control of banana black sigatoka on banana seedlings", "type": "in vivo", "settings": "200 ppm, leaves sprayed to run-off; 28 to 40 days post inoculation", "method": "Test compounds are dissolved in acetone and diluted with distilled water containing about 0.05% TWEEN 20® to give a concentration of 200 ppm. Banana seedlings at the 6-7 leaf stage are sprayed with test solution on the upper and lower surfaces of the 3 youngest, unfurled leaves to the point of run-off, dried and inoculated with a spore suspension of Mycosphaerella fijiensis. The inoculated banana seedlings are placed outdoors in a plastic tunnel lined with wet jute sacks. The temperature is maintained between about 25° and 32° C. and the relative humidity is maintained between about 85% and 100%. After five days, the banana seedlings are transferred to a partially shaded screenhouse, surrounded with wet jute sacks and misted daily. When disease symptom development is optimal, typically 28 to 40 days post inoculation, the banana seedlings are rated for disease control according to the rating scale shown below. Each test contains inoculated treated plants, inoculated untreated plants and a reference standard. When more than one test is run, the data are averaged."}, "[9]": {"test_system": "Fusarium oxysporum f. sp. cucumerinum", "test": "In vitro fungicidal evaluation, growth inhibition (FUSOXC)", "type": "cell-based", "set-up": "scale not given here", "settings": "25 ppm, 3-4 days at 21° C.", "method": "(§2) Test compounds are dissolved in acetone and dispersed into cell well plates containing a suspension of ground fungal mycelia in a nutrient broth. Assay plates are incubated for 3-4 days at 21° C. Growth inhibition is measured visually and is rated using the following scale:\n(§3) Untreated controls, solvent blanks and reference standards are included in each test.\n(§4) Assay fungi include the plant pathogens, Pythium ultimum (Pythul); Rhizoctonia solani (Rhizso); Fusarium oxysporum f. sp. cucumerinum (Fusoxc); and Pseudocercosporella herpotrichoides (Psdche).\n(§5) When more than one test is run, the data are averaged."}, "[10]": {"test_system": "Fusarium oxysporium f. sp. cucumerinum", "test": "Control of soil borne diseases, Cucumber Fusarium Wilt (CUFO)", "type": "in vivo", "settings": "14-18 days after treatment", "method": "as §1"}, "[11]": {"test_system": "Rhizoctonia solani", "test": "In vivo fungicidal evaluation, Rice Sheath Blight (RSB)", "settings": "400 ppm, plants sprayed before inoculation"}, "[12]": {"test_system": "Rhizoctonia solani", "test": "In vitro fungicidal evaluation, growth inhibition (RHIZSO)", "type": "cell-based", "set-up": "scale not given here", "settings": "25 ppm, 3-4 days at 21° C.", "method": "as §2, §3, §4, §5"}, "[13]": {"test_system": "Pseudocercosporella herpotrichoides", "test": "In vivo fungicidal evaluation, Wheat Eyespot (WES)", "settings": "400 ppm, plants sprayed before inoculation"}, "[14]": {"test_system": "Pseudocercosporella herpotrichoides", "test": "In vitro fungicidal evaluation, growth inhibition (PSDCHE)", "type": "cell-based", "set-up": "scale not given here", "settings": "25 ppm, 3-4 days at 21° C.", "method": "as §2, §3, §4, §5"}, "[15]": {"test_system": "Erysiphe graminis f. sp. tritici", "test": "In vivo fungicidal evaluation, Wheat Powdery Mildew (WPM)", "settings": "200 ppm, plants sprayed before inoculation"}, "[16]": {"test_system": "Puccinia recondita f. sp. tritici", "test": "In vivo fungicidal evaluation, Wheat Leaf Rust (WLR)", "settings": "200 ppm, plants sprayed before inoculation"}, "[17]": {"test_system": "Alternaria solani", "test": "In vivo fungicidal evaluation, Tomato Early Blight (TEB)", "settings": "200 ppm, plants sprayed before inoculation"}, "[18]": {"test_system": "Pythium ultimum", "test": "In vitro fungicidal evaluation, growth inhibition (PYTHUL)", "type": "cell-based", "set-up": "scale not given here", "settings": "25 ppm, 3-4 days at 21° C.", "method": "as §2, §3, §4, §5"}, "[19]": {"test_system": "Venturia inaequalis", "test": "In vivo fungicidal evaluation, Apple Scab (AS)", "settings": "200 ppm, plants sprayed before inoculation"}}, "data": [{"smiles": "CN([O-])C(=S)C(=O)C(C)(C)C.CN([O-])C(=S)C(=O)C(C)(C)C.[Cu+2]", "note": "[N,3,3-trimethyl-2-oxo-1-thiobutyrohydroxamic acid copper(+2) chelate]", "values": [{"measurement": "disease control rating, GDM", "setting": "[1]", "result": 7.7}, {"measurement": "disease control rating, RB", "setting": "[2]", "result": 0.0}, {"measurement": "disease control rating, SBC", "setting": "[3]; 200 ppm", "result": 7.2}, {"measurement": "disease control rating, SBC", "setting": "[3]; 400 ppm", "result": 6.1}, {"measurement": "disease control rating, PCE", "setting": "[4]", "result": 7.0}, {"measurement": "disease control rating, CUPA", "setting": "[5]; 2.5 kg/ha soil drench", "result": "1 (5-10)"}, {"measurement": "disease control rating, CUPA", "setting": "[5]; 5.0 kg/ha soil drench", "result": "2 (15-25)"}, {"measurement": "disease control rating, CUPA", "setting": "[5]; 10.0 kg/ha soil drench", "result": "1 (5-10)"}, {"measurement": "disease control rating, PB", "setting": "[6]", "result": 6.5}, {"measurement": "disease control rating, CURS", "setting": "[7]; 2.5 kg/ha soil drench", "result": "5 (60-70)"}, {"measurement": "disease control rating, CURS", "setting": "[7]; 5.0 kg/ha soil drench", "result": "6 (75-85)"}, {"measurement": "disease control rating, CURS", "setting": "[7]; 10.0 kg/ha soil drench", "result": "9 (100)"}, {"measurement": "Control of Banana Black Sigatoka (rating)", "setting": "[8]", "result": 6.3}, {"measurement": "growth inhibition rating, FUSOXC", "setting": "[9]", "result": 4.8}, {"measurement": "disease control rating, CUFO", "setting": "[10]; 2.5 kg/ha soil drench", "result": "3 (30-40)"}, {"measurement": "disease control rating, CUFO", "setting": "[10]; 5.0 kg/ha soil drench", "result": "5 (60-70)"}, {"measurement": "disease control rating, CUFO", "setting": "[10]; 10.0 kg/ha soil drench", "result": "6 (75-85)"}, {"measurement": "disease control rating, RSB", "setting": "[11]", "result": 4.7}, {"measurement": "growth inhibition rating, RHIZSO", "setting": "[12]", "result": 8.5}, {"measurement": "disease control rating, WES", "setting": "[13]", "result": 6.7}, {"measurement": "growth inhibition rating, PSDCHE", "setting": "[14]", "result": 8.5}, {"measurement": "disease control rating, WPM", "setting": "[15]", "result": 5.0}, {"measurement": "disease control rating, WLR", "setting": "[16]", "result": 6.5}, {"measurement": "disease control rating, TEB", "setting": "[17]", "result": 9.0}, {"measurement": "growth inhibition rating, PYTHUL", "setting": "[18]", "result": 8.0}, {"measurement": "disease control rating, AS", "setting": "[19]", "result": 8.0}]}]}
